Laboratory results: US20030087243A1, “Diagnosis, prognosis and treatment of cancer related to the Barx2 gene” (priority 1999, published 2003)

What was measured:
Assay type in all cases: cell-based, human
[1] = system: PEO1CDDP transfectant cell lines; assay: Clonogenic assay of PEO1CDDP transfectants after cisplatinum exposure; conditions: CB1.3, CB3.6 vs CH1.1, CH2.2; 3 day exposure, 1.0 μM cisplatinum; p<0.0001
Method: FIG. 35. The PEO1CCDP pBABE Hygromycin control transfectant cell lines CH1.1 and CH2.2, and the PEO1CDDP pBABE BARX2 transfectant cell lines CB1.3 and CB3.6, were assayed for survival at day 12 following 3 day exposure to 0 μM, 1.0 μM and 2.0 μM cisplatinum in a clonogenic assay.

PEO1 CDDP cell line = assay: Cisplatin resistance of PEO1 CDDP cell line relative to PEO1; conditions: developed by exposing PEO1 to cisplatinum in vitro
Excerpt: (§1) In FIG. 4, the 5′ end (F1R1) and the 3′ end (F3R3) of the BarX2 transcript are amplified by RT-PCR using the primers given. PEO1, PEO4, PEO6 and PEOCDDP are four cell lines derived from a patient with ovarian cancer. […] Another cell line PEO4 was derived from the same patient when they relapsed again after treatment with high dose cisplatin chemotherapy in vivo. This cell line is approx four-fold resistant relative to PEO1.

PEO4 = assay: Cisplatin resistance of PEO4 cell line relative to PEO1; conditions: PEO4, derived after relapse following high dose cisplatin in vivo
Excerpt: as §1

PEO1CDDP [2] = assay: Growth (cell counts) of PEO1CDDP transfectant clones exposed to cisplatinum; conditions: day 13
Method: We tested whether the introduction of Barx2 into PEO1CDDP altered its sensitivity to cisplatinum. 25000 cells were plated. Two days later, varying concentrations of cisplatinum were applied for 3 days, and then removed. Refeeding of the cells was performed every three days until day 13 with cell counts performed every three days.
CH1.1 is a control PEO1CDDP derivative clone that has been transfected with the pBabe Hygro empty vector (the same vector into which BarX2 was cloned) and behave as the parent line. CB3.6 is a BarX2 transfected growth suppressed clone. Both are exposed to increasing concentrations of cisplatinum.
The result of this experiment is seen particularly at the 1 μM cisplatinum concentration. Compared with no cisplatinum, the control cell line grows to 85% control at 1 μM cisplatinum at day 13. At the same timepoint and concentration of platinum, the BarX2 transfected platinum resistant cell line grows to only 69% of control. This increase in platinum sensitivity (or reduction in resistance) upon BarX2 transfection is consistent with the observed aberrant expression of the 5′ BarX2 transcript noted by RT-PCR in the PEO series of cell lines. Whether BarX2 induces sensitivity, reduces resistance, or both is not understood and the underlying mechanism is currently being explored.

PEO1CDDP [3] = assay: 12 day growth inhibition assay with cisplatin, PEO1CDDP with and without Barx2 transfection; conditions: across the cisplatin concentration range
[4] = system: PEO1 cisplatin sensitive and resistant cell lines; assay: Annexin-V-FACS apoptosis after cisplatin
Method: Flow-cytometric detection of phosphatidylserine expression in cell lines and MHCs was performed according to the manufacturer's method using the Fluorescein labelled Annexin-V Apoptosis Detection Kit (R&D systems) (Vermes et al, 1995). The measure of early apoptosis derives from the assessment of the proportion of Annexin-V positives Propidium Iodide negative cells.
(§2) Transfection of BARX2 into OVCAR3, OAW42, PEO1 and PEO1-CDDP suppresses cell growth. In OAW42, this is accompanied by suppression of matrigel invasion, cell migration and adhesion and partial G1/S-phase block. […] This is consistent with recent thinking for molecular mechanisms of cytotoxicity in clinical cancer, and clonogenic assays are shown in FIG. 35.

PEO1 = assay: 12 day growth inhibition assay with cisplatin, PEO1 with and without Barx2 transfection; conditions: PEO1, across the cisplatin concentration range
Excerpt: as §2

Barx2 = assay: Azacytidine demethylation, Barx2 re-expression in OAW42; conditions: OAW42, 96 hours, 0.5 μM azacytidine
Method: OAW42 was exposed to 5-azacytidine for 96 hours at different concentrations. […] Feint expression is seen for barx2 in OAW42 control, but strong induction of barx2 expression is seen at 0.5 μM azacytidine relative to actin signal.
OAW42 was exposed to 5-azacytidine for 96 hours at different concentrations.

| Structure (SMILES) | increase in platinum sensitivity following BARX2 transfection (survival at day 12) [1] | resistance to cisplatin relative to PEO1 (PEO1 CDDP cell line) [fold] | resistance relative to PEO1 (PEO4) | growth compared with no cisplatinum (PEO1CDDP [2]; BarX2 transfected clone CB3.6, 1 μM cisplatinum for 3 days) [%] | growth compared with no cisplatinum (PEO1CDDP [2]; control clone CH1.1 (pBabe Hygro empty vector), 1 μM cisplatinum for 3 days) [%] | increase of platinum sensitivity by Barx2 transfection (PEO1CDDP [3]) | apoptosis, sensitive versus resistant cell lines ([4]; 1.5 or 5 micromolar cisplatin, between 1 hr and 40 hr) | apoptosis in response to cisplatin in BARX2 transfected cells ([4]; BARX2 transfected PEO1 and PEO1-CDDP) | change of sensitivity to cisplatin as a result of Barx2 transfection (PEO1) | induction of Barx2 expression (Barx2) |
| --- | --- | --- | --- | --- | --- | --- | --- | --- | --- | --- |
| N.N.[Cl][Pt][Cl] [cisplatin] | statistically significant | 18 | approx four | 69 | 85 | six | no significant differences | no increase in apoptosis | not significantly altered |  |
| Nc1ncn([C@@H]2O[C@H](CO)[C@@H](O)[C@H]2O)c(=O)n1 [5-azacytidine] |  |  |  |  |  |  |  |  |  | Clear induction |
